Experimental data from paper PMC2919811 (Analytical biochemistry, 2010).
Where “and” joins values, the source holds several entries; their conditions need not be identical. Equal entries are not always repeated.

Key:
OATP1B3 [1] = target: T1, OATP1B3 (Homo sapiens, UniProt Q9NPD5); test: Cellular accumulation in CHO cells transiently transfected with OATP1B3; conditions: 10 μM 8-FcA, 20 minutes
T1 sequence (Q9NPD5 1-702): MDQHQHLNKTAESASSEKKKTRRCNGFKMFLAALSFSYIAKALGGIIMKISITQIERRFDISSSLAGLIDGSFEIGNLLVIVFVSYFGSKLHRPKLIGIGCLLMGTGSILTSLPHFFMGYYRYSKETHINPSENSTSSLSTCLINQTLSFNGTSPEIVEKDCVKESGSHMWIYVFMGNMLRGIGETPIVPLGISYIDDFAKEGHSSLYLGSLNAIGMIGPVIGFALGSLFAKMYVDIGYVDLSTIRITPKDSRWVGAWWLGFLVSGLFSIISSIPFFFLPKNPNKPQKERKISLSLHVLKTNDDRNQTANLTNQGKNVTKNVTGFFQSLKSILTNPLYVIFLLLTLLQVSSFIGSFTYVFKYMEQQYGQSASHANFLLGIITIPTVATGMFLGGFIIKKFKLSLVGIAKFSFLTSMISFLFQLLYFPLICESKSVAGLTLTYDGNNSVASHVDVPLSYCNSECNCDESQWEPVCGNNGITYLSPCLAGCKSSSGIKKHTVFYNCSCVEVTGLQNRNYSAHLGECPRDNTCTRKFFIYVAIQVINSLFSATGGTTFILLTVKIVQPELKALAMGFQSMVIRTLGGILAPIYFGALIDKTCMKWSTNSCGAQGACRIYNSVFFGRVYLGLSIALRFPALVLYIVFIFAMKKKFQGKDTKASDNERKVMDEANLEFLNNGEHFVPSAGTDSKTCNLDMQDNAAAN

OATP1B1 = OATP1B1 (Homo sapiens, UniProt Q9Y6L6); conditions: 10 μM 8-FcA, 20 minutes
Chain of OATP1B1 (Q9Y6L6 whole entry): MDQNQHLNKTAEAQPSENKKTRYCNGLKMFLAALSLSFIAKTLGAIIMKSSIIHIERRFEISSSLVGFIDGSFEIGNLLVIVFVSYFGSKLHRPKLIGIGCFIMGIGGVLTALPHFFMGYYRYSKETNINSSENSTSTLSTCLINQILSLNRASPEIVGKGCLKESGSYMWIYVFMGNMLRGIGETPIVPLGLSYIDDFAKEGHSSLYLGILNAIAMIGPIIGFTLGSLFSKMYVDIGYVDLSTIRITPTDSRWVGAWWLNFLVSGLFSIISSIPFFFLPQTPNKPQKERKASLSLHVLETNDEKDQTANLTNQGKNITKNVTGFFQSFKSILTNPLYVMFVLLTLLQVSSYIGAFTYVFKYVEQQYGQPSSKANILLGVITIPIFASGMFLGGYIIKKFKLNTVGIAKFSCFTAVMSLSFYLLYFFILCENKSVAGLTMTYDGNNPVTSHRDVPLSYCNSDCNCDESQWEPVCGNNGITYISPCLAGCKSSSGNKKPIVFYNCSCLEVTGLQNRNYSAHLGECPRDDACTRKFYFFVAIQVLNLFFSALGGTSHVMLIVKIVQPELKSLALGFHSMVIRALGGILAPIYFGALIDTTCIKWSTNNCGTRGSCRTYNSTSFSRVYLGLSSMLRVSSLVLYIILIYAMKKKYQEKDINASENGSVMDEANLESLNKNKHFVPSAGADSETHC

OATP1B3 [2] = target: T1, OATP1B3; test: Substrate uptake and transport kinetics in CHO cells stably expressing OATP1B3
OATP2B1 [3] = target: T2, OATP2B1 (Homo sapiens, UniProt O94956); test: Cellular accumulation in CHO cells transiently transfected with OATP2B1; assay type: cell-based; conditions: 10 μM 8-FcA, 20 minutes
T2 sequence (O94956 1-709): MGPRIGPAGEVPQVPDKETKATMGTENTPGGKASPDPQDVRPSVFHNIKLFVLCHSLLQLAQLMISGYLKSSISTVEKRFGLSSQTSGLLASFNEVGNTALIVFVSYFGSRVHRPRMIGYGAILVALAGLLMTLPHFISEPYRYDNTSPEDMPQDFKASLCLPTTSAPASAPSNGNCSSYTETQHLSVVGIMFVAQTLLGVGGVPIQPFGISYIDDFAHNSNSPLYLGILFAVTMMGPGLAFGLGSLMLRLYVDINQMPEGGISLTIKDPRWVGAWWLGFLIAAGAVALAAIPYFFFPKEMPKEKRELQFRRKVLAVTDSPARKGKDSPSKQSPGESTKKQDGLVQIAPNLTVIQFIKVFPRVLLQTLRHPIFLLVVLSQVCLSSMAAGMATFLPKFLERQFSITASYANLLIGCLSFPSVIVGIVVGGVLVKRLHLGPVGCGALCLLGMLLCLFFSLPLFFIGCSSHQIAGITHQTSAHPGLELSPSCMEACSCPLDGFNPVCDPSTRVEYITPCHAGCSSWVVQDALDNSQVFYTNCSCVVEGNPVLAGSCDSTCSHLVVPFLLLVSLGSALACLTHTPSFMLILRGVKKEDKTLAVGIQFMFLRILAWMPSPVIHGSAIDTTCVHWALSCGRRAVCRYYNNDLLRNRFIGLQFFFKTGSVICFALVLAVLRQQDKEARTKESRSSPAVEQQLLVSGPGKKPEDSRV

OCT1 = target: T3, OCT1 (Homo sapiens, UniProt O15245); test: Cellular accumulation in CHO cells transiently transfected with OCT1; assay type: cell-based; conditions: 10 μM 8-FcA, 20 minutes
T3 sequence (O15245 1-554): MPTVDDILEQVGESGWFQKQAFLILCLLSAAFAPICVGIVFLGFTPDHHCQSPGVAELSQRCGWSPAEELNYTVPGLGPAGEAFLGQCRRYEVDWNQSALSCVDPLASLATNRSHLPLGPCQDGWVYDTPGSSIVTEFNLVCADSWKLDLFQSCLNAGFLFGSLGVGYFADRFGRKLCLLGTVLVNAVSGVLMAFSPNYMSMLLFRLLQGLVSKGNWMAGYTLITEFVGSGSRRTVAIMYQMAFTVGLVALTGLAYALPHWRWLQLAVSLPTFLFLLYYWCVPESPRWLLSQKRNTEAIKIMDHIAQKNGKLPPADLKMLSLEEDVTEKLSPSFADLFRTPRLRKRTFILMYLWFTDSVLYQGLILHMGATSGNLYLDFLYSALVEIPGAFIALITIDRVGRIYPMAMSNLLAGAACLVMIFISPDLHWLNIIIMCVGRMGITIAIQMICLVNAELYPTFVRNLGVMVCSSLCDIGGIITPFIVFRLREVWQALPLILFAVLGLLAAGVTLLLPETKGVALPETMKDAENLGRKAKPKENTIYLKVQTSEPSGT

NTCP = target: T4, NTCP (Homo sapiens, UniProt Q14973); test: Cellular accumulation in CHO cells transiently transfected with NTCP; assay type: cell-based; conditions: 10 μM 8-FcA, 20 minutes
T4 sequence (Q14973 1-349): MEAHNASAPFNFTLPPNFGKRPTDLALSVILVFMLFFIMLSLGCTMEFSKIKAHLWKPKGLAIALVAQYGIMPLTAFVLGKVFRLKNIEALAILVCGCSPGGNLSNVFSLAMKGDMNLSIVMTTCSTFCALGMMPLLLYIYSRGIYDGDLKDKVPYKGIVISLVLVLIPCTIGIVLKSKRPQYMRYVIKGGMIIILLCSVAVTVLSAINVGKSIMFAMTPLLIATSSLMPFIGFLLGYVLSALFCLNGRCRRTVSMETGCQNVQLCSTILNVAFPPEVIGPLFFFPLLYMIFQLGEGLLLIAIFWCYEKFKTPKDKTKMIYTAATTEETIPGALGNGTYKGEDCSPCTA

OATP2B1 [4] = target: T2, OATP2B1; test: Substrate uptake in CHO cells stably expressing OATP2B1; assay type: cell-based; conditions: 2 μM substrate, five minute accumulation, CHOvector = 1

SMILES: Nc1ncnc2c1nc(SCCNC(=S)Nc1ccc(-c3c4ccc(=O)cc-4oc4cc(O)ccc34)c(C(=O)O)c1)n2[C@@H]1O[C@@H]2COP(=O)(O)O[C@H]2[C@H]1O [8-FcA, 8-(2-[Fluoresceinyl]aminoethylthio) adenosine-3', 5'-cyclic monophosphate]
- cellular accumulation by fluorescence microscopy, OATP1B3 (OATP1B3 [1]): readily accumulated
- cellular accumulation by fluorescence microscopy, OATP1B1 (OATP1B1): readily accumulated
- transport efficiency, Vmax/Km (OATP1B3) (OATP1B3 [2]): 0.183 μL/min/cm^2
- cellular accumulation relative to control, CHOOATP1B3 (OATP1B3 [2]; 2 μM substrate, five minute accumulation, CHOvector = 1): robust accumulation
- Vmax of OATP1B3-mediated transport (OATP1B3 [2]; 8-FcA 0.25-25 μM, 10 min uptake, CHOvector subtracted, mean ± standard error): 0.33 pmol/min/cm^2 and 0.33±0.02 pmol/min/cm^2
- cellular accumulation by fluorescence microscopy, OATP2B1 (OATP2B1 [3]): negative
- cellular accumulation by fluorescence microscopy, OCT1 (OCT1): negative
- cellular accumulation by fluorescence microscopy, NTCP (NTCP): negative
- cellular accumulation relative to control, CHOOATP2B1 (OATP2B1 [4]): not statistically different from that of CHOvector
